Test results reported in US7507749B2, “Antitumor agents” (priority 2001, dated 2009).
“And” between values parts separate entries of the source, which are not always exact repeats. Equal values may be shown once. Read-outs that look alike come from different tables or passages of the source. Each block holds one molecule with its values, some of them ahead of it.

Experiments:
[1] = system: mammary adenocarcinoma-16/C/Adr; assay: Test C: evaluation against early stage mammary adenocarcinoma-16/C/Adr; format: in vivo
Description: Early stage mammary adenocarcinoma-16/C/Adr is a p-glycoprotein negative multidrug resistant tumor. C3H female mice were obtained from NCI-Kingston-CRL (D.O.B. Apr. 3, 2000; D.O.A. May 16, 2000). […] The control animals (Cage #1) received no treatment.

[2] = system: pancreatic ductal adenocarcinoma 03
Description: Pancreatic ductal adenocarcinoma-03, B16-melanoma, mammary adenocarcinoma-16/C/Adr, mammary adenocarcinoma-17/Adr, colon adenocarcinoma-26, and mammary adenocarcinoma-16/C were used in the studies.
(§1) Tumors were maintained in the mouse strain of origin C57B1/6 (for Panc03, B16), Balb/c (for Colon 26) and C3H (for the mammary tumors). Tumors were transplanted into the appropriate F1 hybrid (BDF1=C57B1/6 female X DBA/2 male) or the strain of origin for the chemotherapy trials. Individual mouse body weights for each experiment were within 5 grams, and all mice were over 17 grams at the start of therapy. The mice were supplied food and water ad libitum.
(§2) Animals were pooled, implanted subcutaneously with 30 to 60 mg tumor fragments by a 12 gauge trocar on day 0, and again pooled before unselective distribution to the various treatment and control groups. For early stage treatment, chemotherapy was started within 1 to 3 days after tumor implantation while the number of cells was relatively small (10^7 to 10^8 cells). For upstaged or advanced staged trials, the tumors were allowed to grow for five or more days before treatment was started. Tumors were measured with a caliper twice weekly. […] Tumor weights are estimated from two-dimensional measurements:
(§3) Tumor weight (in mg)=(a×b^2)/2, where a and b are the tumor length and width in (mm), respectively.
(§4) The following quantitative endpoints were used to assess antitumor activity: • a) Tumor growth delay (T-C value), where T is the median time (in days) required for the treatment group tumors to reach a predetermined size (e.g., 1000 mg), and C is the median time (in days) for the control group tumors to reach the same size. Tumor-free survivors are excluded from these calculations (cures are tabulated separately). This value is an important criterion of antitumor effectiveness because it allows the quantification of tumor cell kill. • b) Calculation of tumor cell kill for subcutaneously (SC) growing tumors, the log10 cell kill was calculated from the following formula:
(§5) The conversion of the T-C values to log10 cell kill is possible because the Td of tumors regrowing post treatment (Rx) approximates the Td values of the tumors in untreated control mice.
In selected cases, both for historic in vivo evaluation data as well as data presented here, it is of value to compare log kill numbers from trials of markedly different testing schedules. […] It should be noted that an activity rating of +++ to ++++ is needed to effect partial regression (PR) or complete regression (CR) of 100 to 300 mg size masses of most transplanted solid tumors of mice. Thus, an activity rating of + or ++ would not be scored as active by usual clinical criteria. A PR is a reduction in tumor mass to less than 50% of pretreatment size. A CR is a reduction in tumor mass to below palpable size (i.e., reduction to zero detectable mass).
(§6) The T/C value in percent is an indication of antitumor effectiveness: A T/C=0% means no tumor growth. […] A T/C value <10% is considered to indicate highly significant antitumor activity, and is the level used by NCI to justify a clinical trial if toxicity, formulation, and certain other requirements are met (termed DN-2 level activity).
Female BDFl mice (obtained from NCI-Raleigh) (date of birth (hereinafter D.O.B.) Mar. 27, 2000; date of arrival (hereinafter D.O.A.) Apr. 9, 2000) were implanted (tumor implant date (hereinafter D.O.T.) Mar. 17, 2000) with pancreatic ductal adenocarcinoma 03 tumor, divided into treatment and control groups.

B16 melanoma [3] = system: B16 melanoma
Description: as §1, §2, §3, §4, §5
It should be noted that an activity rating of +++ to ++++ is needed to effect partial regression (PR) or complete regression (CR) of 100 to 300 mg size masses of most transplanted solid tumors of mice. Thus, an activity rating of + or ++ would not be scored as active by usual clinical criteria. A PR is a reduction in tumor mass to less than 50% of pretreatment size. A CR is a reduction in tumor mass to below palpable size (i.e., reduction to zero detectable mass).
as §6
The mice were divided into a control group and three experimental groups. The control group (Cage #1) received no treatment.
A −20% body weight loss is considered excessively toxic by N.C.I. standards.

colon carcinoma 26 = system: colon carcinoma 26
Protocol: In this trial the R-enantiomers of XK-469, compound 22c, and compound 22b were compared against advanced staged colon carcinoma 26 in female Balb/c mice. […] Cage #2 was 22b at 400 mg/kg and Cage #4 was 22c at 400 mg/kg.
The XK469-R, 22b, and 22c compound doses were all prepared the same, using 3% ethanol, 1% POE-80, and 0.5% sodium bicarbonate. The injection volume was 0.2 mu/mouse IV. […] The mice were Balb/c female mice: DOB Feb. 12, 2001; DOA Mar. 27, 2001; DOT Sep. 8, 2001, with an average body weight of 24.7 grams at the start of Rx administration. The tumor was Colon Carcinoma-26 passage 141; date of implant Sep. 8, 2001, and implanted at 30 to 60 mg fragments bilaterally SC. All tumors were 63 to 171 mg on day 6, the day of first Rx.

[4] = system: mammary adenocarcinoma-16/C; assay: Test F: R-enantiomers of 22b and 22c against early staged mammary adenocarcinoma-16/C; format: in vivo, C3H female mice; settings: Cage 11, IV 7.5 mg/kg/inj days 1,5, total 15 mg/kg
Protocol: C3H female mice were obtained from N.C.I. (D.O.B. was […]; D.O.A. was Jan. 27, 2001). The mice weighed an average of 19.2 gm. Mice were implanted SC with mammary adenocarcinoma-16/C passage-170, a fast growing, highly invasive, highly metastatic tumor (D.O.T. was Mar. 8, 2001; Td was 1.2 days).
The R-enantiomers of both Compound 22c and Compound 22b were each suspended in 3% ethanol, 1% POE-80, 0.5% sodium bicarbonate (by volume) to effect solution, P.B.S. was then added and the pH adjusted to 7 with HCl. Adriamycin (ADRIA; lot number 20338c) was suspended in dH2O to effect solution and the pH was adjusted to 6.0. Mice were administered 0.2 ml per IV injection.

[5] = system: pancreatic ductal adenocarcinoma-03; format: in vivo; settings: Cg 8 in table (Cage 13 in text); IV 7.5 mg/kg/inj days 6,14; total 15 mg/kg
Protocol: BDF1 female mice were obtained from N.C.I., CRL-Ral (D.O.B. was Feb. 26, 2001; D.O.A. was Mar. 10, 2001). The mice weighed an average of 22.5 gm. Mice were implanted SC with pancreatic ductal adenocarcinoma-03 passage 143. (D.O.T. was May 29, 2001; Td was 2.3 days).
The R-enantiomer of compound 22c was suspended in 3% ethanol, 1% POE-80, 0.25% sodium bicarbonate (by volume) to effect solution. dH2O was then added, and the pH adjusted to 7 with HCl. […] The R-enantiomer of compound 22b was suspended in 3% ethanol, 1% POE-80, 0.5% sodium-bicarbonate (by volume) to effect solution. Then, dH2O was added, and the pH adjusted to 7.5 with HCl. […] Adriamycin (source ADRIA; lot 2033BC) was suspended in dH2O to effect solution, and the pH was 6.0.
Treatment began six days following implant, at which time the tumors were palpable size (126 mg median). The duration of treatment was prolonged (18 days) in order to obtain a clear separation in efficacy between the compounds.

B16 melanoma [6] = settings: historic, B16 melanoma implanted subcutaneously (SC); cited from earlier work
[7] = system: pancreatic ductal adenocarcinoma 03; settings: historic; cited from earlier work
[8] = Cage 2, IV 42 mg/kg twice daily days 1-3 and 11-13, total 504 mg/kg
[9] = Cage 3, IV 27 mg/kg twice daily days 1-3 and 11-13, total 324 mg/kg
[10] = Cage 7, IV daily days 3-9, 7 inj, total 336 mg/kg
[11] = Cage 2, IV 40 mg/kg/inj days 1-4, 8 inj, total 320 mg/kg
[12] = Cage 3, IV 50 mg/kg/inj daily days 1-5, total 250 mg/kg
[13] = Cage 4, IV 30 mg/kg/inj daily days 1-6, total 180 mg/kg
[14] = Cg 3, IV 50 mg/kg/inj days 6,8,10,13,15, total 250 mg/kg

melting point: 164 to 166 °C
SMILES: COc1ccc2ccc(Oc3ccc(OC(C)C(=O)O)cc3)nc2c1 (stereo not drawn)

SMILES: CC(Oc1ccc(Oc2ccc3ccc(Cl)cc3n2)cc1)C(=O)O (racemic) [Compound 22b, 2-[4-(7-chloroquinolin-2-yloxy)phenoxy]propanoic acid]
% Body Wt Loss at Nadir [1, 8]: −15% | % T/C mass [1, 8]: 0% | Activity Rating [1, 8]: +++ (2.0-2.8) | Day of Nadir [1, 8]: 7 days | Day of full recovery of body weight [1, 8]: 12 days | Drug Deaths [1, 8]: 0/6 | Growth Delay [1, 8]: 8.0 days | Log Kill [1, 8]: 2.0 | Median Tumor Mass on Day 11 (Range) [1, 8]: 0 (0-308) mg | Tumor Free day-18 [1, 8]: 0/6 | Neuromuscular toxicity ([1]; Cage 2, IV 42 mg/kg twice daily, lasting about ten minutes post injection): modest neuromuscular gait disturbance | Neuromuscular toxicity ([1]; Cage 3, IV 27 mg/kg twice daily): insignificant gait disturbance | % Body Wt Loss at Nadir [1, 9]: −1.1% | % T/C mass [1, 9]: 53% | Activity Rating [1, 9]: inactive | Day of Nadir [1, 9]: 7 days | Day of full recovery of body weight [1, 9]: 8 days | Drug Deaths [1, 9]: 0/6 | Growth Delay [1, 9]: 2.25 days | Log Kill [1, 9]: 0.6 | Median Tumor Mass on Day 11 (Range) [1, 9]: 741 (516-1199) mg | Tumor Free day-18 [1, 9]: 0/6 | % T/C mass [2, 10]: 0% | Activity Rating [2, 10]: +++ (2.0-2.8) | Drug Deaths [2, 10]: 0/5 | Growth Delay In Days [2, 10]: 17.5 days | Log Kill [2, 10]: 2.6 | Median Tumor Mass on Day 14 (Range) [2, 10]: 0 (0-126) mg | Tumor Free day-37 [2, 10]: 0/5 | % Body Wt Loss at Nadir ([2]; mouse, in vivo): −8.9% | Day of Nadir ([2]; mouse, in vivo): 11 days | % T/C mass (B16 melanoma [3]; [11]): 0% | Cause of death (B16 melanoma [3]; [11]): marrow toxicity | Drug Deaths (B16 melanoma [3]; [11]): 1/5 | Growth Delay (B16 melanoma [3]; [11]): 12.5 days | Log Kill (B16 melanoma [3]; [11]): 3.8 | Median Tumor Mass on Day 9 (Range) (B16 melanoma [3]; [11]): 0 (all zeros) mg | Tumor Free day-24 (B16 melanoma [3]; [11]): 0.5 | Activity Rating (B16 melanoma [3]; Cage 2, IV 40 mg/kg/inj days 1-4, 8 inj, total 320 mg/kg, listed as 22b (racemic)): toxic | % T/C mass (B16 melanoma [3]; [12]): 0% | Activity Rating (B16 melanoma [3]; [12]): +++ (2.0-2.8) | Drug Deaths (B16 melanoma [3]; [12]): 0/5 | Growth Delay (B16 melanoma [3]; [12]): 8.5 days | Log Kill (B16 melanoma [3]; [12]): 2.6 | Median Tumor Mass on Day 9 (Range) (B16 melanoma [3]; [12]): 0 (all zeros) mg | Tumor Free day-24 (B16 melanoma [3]; [12]): 0/5 | % T/C mass (B16 melanoma [3]; [13]): 15.6% | Activity Rating (B16 melanoma [3]; [13]): ++ (1.3-1.9) | Drug Deaths (B16 melanoma [3]; [13]): 0/5 | Growth Delay (B16 melanoma [3]; [13]): 6.0 days | Log Kill (B16 melanoma [3]; [13]): 1.8 | Median Tumor Mass on Day 9 (Range) (B16 melanoma [3]; [13]): 221 (63-334) mg | Tumor Free day-24 (B16 melanoma [3]; [13]): 0/5 | Day of Nadir (B16 melanoma [3]; mouse, in vivo): 8 days | Day of full recovery of body weight (B16 melanoma [3]; mouse, in vivo): 11 days and 9 days | Duration of neuromuscular toxicity post injection (B16 melanoma [3]; mouse, in vivo): over 20 minutes | Neuromuscular toxicity (slowing of nerve conduction) (B16 melanoma [3]; mouse, in vivo): substantial post injection neuromuscular toxicity and mild | Toxicity of dose group (colon carcinoma 26; Cage 2, 400 mg/kg, omitted from Table 8): toxic | Activity Rating (colon carcinoma 26; [14]): ++ (1.3-1.9) | CR's (colon carcinoma 26; [14]): 1/6 | Log Kill (colon carcinoma 26; [14]): 1.4

SMILES: COc1cccc2c1C(=O)c1c(O)c3c(c(O)c1C2=O)C[C@@](O)(C(=O)CO)C[C@@H]3O[C@H]1C[C@H](N)[C@H](O)[C@H](C)O1 [Adriamycin, reference compound]
% Body Wt Loss at Nadir [4]: 0% | % T/C mass [4]: 0% | Day of Nadir [4]: 8 days | Drug Deaths [4]: 1/5 | Growth Delay [4]: 12.0 days | Log Kill [4]: 3.6 | Median Tumor Mass on Day 10 (Range) [4]: 0 mg | Median time for tumors to 1000 mg (range) [4]: 21.5 (17-27.5) days | Tumor Free day-155 [4]: 0/5 | % Body Wt Loss at Nadir ([4]; listed as adriamycin): no body weight loss | % T/C mass ([4]; listed as adriamycin): 0% | Activity Rating ([4]; listed as adriamycin): ++++ (>2.8) | Drug Deaths ([4]; listed as adriamycin): one delayed drug-death | % Body Wt change between day 6 and day 24 [5]: −5.4% | % T/C mass [5]: 17.0% | Activity Rating [5]: +++ (2.0-2.8) | CR's [5]: 1/5 | Drug Deaths [5]: 0/5 | Growth Delay [5]: 17.5 days | Log Kill [5]: 2.3 | Median Tumor Mass on Day 24 (Range) [5]: 383 mg | Median time for tumors to 1,000 mg (range) [5]: 34 days | PR's [5]: 1/5 | Tumor Free day-157 [5]: 0/5 | activity rating (responsiveness of the tumor to standard agents) (B16 melanoma [6]): +or +/− | activity rating (sensitivity of the tumor to standard agents) [7]: +++ (2.0-2.8)

SMILES: O=NN(CCCl)C(=O)NCCCl [BCNU]
activity rating (responsiveness of the tumor to standard agents) (B16 melanoma [6]): ++++ (>2.8)

SMILES: O=c1[nH]cc(F)c(=O)[nH]1 [Compound 5-FU, 5-FU]
activity rating (sensitivity of the tumor to standard agents) [7]: + (0.7-1.2)

SMILES: CC[C@@]1(O)C(=O)OCc2c1cc1n(c2=O)Cc2cc3ccccc3nc2-1 [camptothecin]
activity rating (responsiveness of the tumor to standard agents) (B16 melanoma [6]): +or +/−

SMILES: CC(=O)O[C@H]1C(=O)[C@@]2(C)[C@H]([C@H](OC(=O)c3ccccc3)[C@]3(O)C[C@H](OC(=O)[C@H](O)[C@@H](NC(=O)c4ccccc4)c4ccccc4)C(C)=C1C3(C)C)[C@]1(OC(C)=O)CO[C@@H]1C[C@@H]2O [taxol]
activity rating (responsiveness of the tumor to standard agents) (B16 melanoma [6]): +or +/− | activity rating (sensitivity of the tumor to standard agents) [7]: ++++ (>2.8)
